The source of these data is patent publication US10800741B2 (ANCUREALL PHARMACEUTICAL (SHANGHAI) CO., LTD., priority 2017, dated 2020).

Structures are written as SMILES. Where two headings read alike, the source gives them in different places.

What all share (format): cell-based, Human
In assay [1] the test system is MOLM-13 (FLT3-ITD). Nature of the assay: In vitro growth inhibition of MOLM-13 tumor cells (MTT/CCK8). Particulars: Homo sapiens. The text has this:
(§1) Tumor cell lines are an effective model for studying in vitro tumor growth inhibition. In the present invention, a representative tumor cell line was selected to determine the cell growth inhibition activity of the present compound. All cell lines used were from ATCC, DSMZ, and cell banks of the Chinese Academy of Sciences. Cell culture conditions and methods were in accordance with the requirements of each cell line. Cells were subcultured in vitro for no more than 3 generations each time, and as required, single-clone purification and identification of cell lines could be carried out.
(§2) The cell culture media used were RPMI1640 (Gibco), DMEM (Gibco), MEM (Gibco), L15 (Gibco), IMDM (Gibco), McCOY'S5A, and William's (Gibco). 5-20% fetal bovine serum (Gibco), 1% double antibiotic, 2 mM glutamine, or 1 mM sodium pyruvate were added. The names, species, major gene characteristics, culture media and cell sources of the cell lines used are shown in table 1, wherein “amp” refers to gene amplification. “+++” refers to gene overexpression. The main genetic characteristics of cells were obtained from the COSMIC Cell Lines Project and related research papers, respectively.
(§3) Adherent cells were digested with 0.25% trypsin-EDTA (Gibco). Suspension culture cells were collected by centrifugation (1700 rpm, 3 minutes). The supernatant was discarded and the cells were counted. According to each cell growth cycle, different concentrations of cells were prepared (5˜10×10^4 cells per ml), and inoculated to 96-well plates (Corning), with 100 μl per well, and incubated overnight at 37° C., 5% CO2. The next day, the test compound was added to the cultured cells (2 wells in parallel). The final concentration of the solvent was less than 1/1,000. The cells were further cultured for 3 to 5 days and assayed by MTT.
(§4) The compound was stored at a concentration of 10 mM at −20° C. and diluted to 2- or 10-fold series prior to use. BGJ398 and AC220 were synthesized according to the methods of WO2006420A1 and US2007232604A1, respectively.
(§5) The adherent cells were taken out from the cell culture medium, and immediately added to a freshly prepared complete medium containing 10% CCK8 (5% FBS), 100 ul per hole. The suspended cells were directly added to a CCK8 reagent until reaching a final concentration of 10% and cultured for 1 to 4 hours.
(§6) T=optical density of drug-treated cell wells−optical density of blank control wells; T0=optical density of cell wells before drug treatment−optical density of blank control wells; C=optical density of solvent control wells−optical density of blank control wells. […] The experiments were repeated 1 to 3 times and a statistical analysis of data was conducted.

Assay [2] concerns Karpas 299 (NPM-ALK). Nature of the assay: In vitro growth inhibition of Karpas 299 tumor cells (MTT/CCK8). The note with it: Homo sapiens.
From the text: as §1, §2, §3, §4, §5, §6

Assay [3] relates to KCL-22 (BCR-ABL). Nature of the assay: In vitro growth inhibition of KCL-22 tumor cells (MTT/CCK8). The note with it: Homo sapiens, KCL-22; in vitro growth inhibition (or induction of apoptosis), cells cultured 3 to 5 days, MTT (CCK8); read-out: IC50 KCL-22 (BCR-ABL).
From the text: as §1, §2, §3, §4, §5, §6

The subject of assay [4] is H1703 (PDGFRa amp). As to the kind of experiment: In vitro growth inhibition of H1703 tumor cells (MTT/CCK8). The note with it: Homo sapiens, NCI-H1703; in vitro growth inhibition (or induction of apoptosis), cells cultured 3 to 5 days, MTT (CCK8); read-out: IC50 H1703 (PDGFRa amp).
From the text: as §1, §2, §3, §4, §5, §6

Assay [5] has as its system KATO III (FGFR2 amp). As to the kind of experiment: In vitro growth inhibition of KATO III tumor cells (MTT/CCK8). Particulars: Homo sapiens, KATO III; in vitro growth inhibition (or induction of apoptosis), cells cultured 3 to 5 days, MTT (CCK8); read-out: IC50 KATO III (FGFR2 amp).
From the text: as §1, §2, §3, §4, §5, §6

The subject of assay [6] is Hep3B2 (FGFR3/4+++). As to the kind of experiment: In vitro growth inhibition of Hep3B2 tumor cells (MTT/CCK8). Particulars: Homo sapiens, Hep3B; in vitro growth inhibition (or induction of apoptosis), cells cultured 3 to 5 days, MTT (CCK8); read-out: IC50 Hep3B2 (FGFR3/4+++).
From the text: as §1, §2, §3, §4, §5, §6

Assay [7] concerns Kasumi-1 (KIT N822K). Nature of the assay: In vitro growth inhibition of Kasumi-1 tumor cells (MTT/CCK8). Particulars: Homo sapiens, Kasumi 1; in vitro growth inhibition (or induction of apoptosis), cells cultured 3 to 5 days, MTT (CCK8); read-out: IC50 Kasumi-1 (KIT N822K).
From the text: as §1, §2, §3, §4, §5, §6

The subject of assay [8] is H1581 (FGFR1 amp). Nature of the assay: In vitro growth inhibition of H1581 tumor cells (MTT/CCK8). Particulars: Homo sapiens, NCI-H1581; in vitro growth inhibition (or induction of apoptosis), cells cultured 3 to 5 days, MTT (CCK8); read-out: IC50 H1581 (FGFR1 amp).
From the text: as §1, §2, §3, §4, §5, §6

The mark [9] stands for this setting: MOLM-13, in vitro growth inhibition (or induction of apoptosis), cells cultured 3 to 5 days, MTT (CCK8), read-out: IC50 MOLM-13 (FLT3-ITD).
[10] abbreviates: KARPAS-299, in vitro growth inhibition (or induction of apoptosis), cells cultured 3 to 5 days, MTT (CCK8), read-out: IC50 Karpas 299 (NPM-ALK).

On to `Cc1ccc(C(=O)Nc2ccc(CN3CCN(C)CC3)c(C(F)(F)F)c2)cc1C#Cc1cnc2cccnn12` [Ponatinib, reference compound], for which the IC50 in assay [1] (MOLM-13, read-out: IC50 MOLM-13 (FLT3-ITD)) was < 1 nM; in assay [2] (KARPAS-299, read-out: IC50 Karpas 299 (NPM-ALK)), 798 nM.
Consider `CN1CCCN(CCCOc2cc3nccc(Oc4ccc(NC(=O)Nc5cc(C(C)(C)C)n[nH]5)c(Cl)c4)c3cc2C(N)=O)CC1` [Compound 88, 4-{4-[3-(5-tert-butyl-2H-pyrazol-3-yl)-ureido]-3-chloro-phenoxy}-7-[3-(4-methyl-[1,4]-1-yl)-propoxy]-quinolin-6-carboxamide], for which the IC50 amounted to 282 nM in assay [3]; 55.6 nM in assay [4]; 5.67 nM in assay [5]; 175 nM in assay [6]; 5.49 nM in assay [1] (setting [9]); 15.6 nM in assay [7]. In addition, the IC50 in assay [2] (setting [10]) amounted to 153 nM.
Regarding `CC(C)(C)c1cc(NC(=O)Nc2ccc(Oc3ccnc4cc(OCCCN5CCN(C(C)(C)C)CC5)c(C(N)=O)cc34)cc2Cl)[nH]n1` [Compound 87, 7-[3-(4-tert-butyl-piperazin-1-yl)-propoxy]-4-{4-[3-(5-tert-butyl-2H-pyrazol-3-yl)-ureido]-3-chlorophenoxy}-quinolin-6-carboxamide], the IC50 amounted to 55.1 nM in assay [3]; 12.5 nM in assay [4]; 1.02 nM in assay [5]; 57.2 nM in assay [6]; 3.65 nM in assay [1] (setting [9]); 4.19 nM in assay [7]. Moreover, the IC50 in assay [2] (setting [10]) was 144 nM.
Consider `COCCOc1cc2nccc(Oc3ccc(NC(=O)Nc4cc(C(C)(C)C)n[nH]4)c(Cl)c3)c2cc1C(N)=O` [Compound 42, 4-{4-[3-(5-tert-butyl-2H-pyrazol-3-yl)-ureido]-3-chloro-phenoxy}-7-(2-methoxy-ethoxy)-quinolin-6-carboxamide], for which the IC50 in assay [3] amounted to 46.5 nM; in assay [8], 9.19 nM; in assay [4], 11.9 nM; in assay [5], 0.98 nM; in assay [7], 191 nM; in assay [2] (setting [10]), 93 nM.
Consider `CC(C)CN1CCN(CCCOc2cc3nccc(Oc4ccc(NC(=O)Nc5cc(C(C)(C)C)n[nH]5)c(Cl)c4)c3cc2C(N)=O)CC1` [Compound 89, 4-{4-[3-(5-tert-butyl-2H-pyrazol-3-yl)-ureido]-3-chloro-phenoxy}-7-[3-(4-isobutyl-piperazin-1-yl)-propoxy]-quinolin-6-carboxamide], for which the IC50 in assay [3] turned out to be 45 nM; in assay [4] it was 13.1 nM; in assay [5], 1.12 nM; in assay [6], 19.4 nM; in assay [1] (setting [9]), 6.43 nM; in assay [7] it was 4.48 nM. In addition, the IC50 in assay [2] (setting [10]) turned out to be 146 nM.
On to `CC(C)(C)c1cc(NC(=O)Nc2ccc(-c3cn4c(n3)sc3cc(OCCC5CCOCC5)ccc34)cc2)no1` [AC220, reference compound], for which the IC50 was > 1000 nM in assay [3]; > 1000 nM in assay [8]; > 1000 nM in assay [4]; > 1000 nM in assay [5]; 0.69 nM in assay [1] (setting [9]); > 1000 nM in assay [7]. Further, the IC50 in assay [2] (setting [10]) was > 1000 nM.
In the case of `COCCOc1cc2nccc(Oc3ccc(NC(=O)Nc4cc(C(C)(C)C)nn4CCN(C)C)c(Cl)c3)c2cc1NC(C)=O` [Compound 127, N-[4-{4-[3-(5-tert-butyl-2-dimethylamino-ethyl-2H-pyrazol-3-yl)-ureido]-3-chloro-phenoxy}-7-(2-methoxy-ethoxy)-quinolin-6-yl]-acetamide], the IC50 in assay [8] was found to be 1.26 nM; in assay [5], 0.27 nM; in assay [1] (setting [9]), 2.56 nM.
In the case of `COCCOc1cc2nccc(Oc3ccc(NC(=O)Nc4cc(C(C)(C)C)nn4CCN4CCOCC4)cc3)c2cc1NC(C)=O` [Compound 122], the IC50 in assay [8] stood at 69.4 nM; in assay [5], 0.27 nM; in assay [1] (setting [9]), 0.6 nM.
In the case of `CC(C)(C)c1cc(NC(=O)Nc2ccc(Oc3ccnc4cc(OCCCN5CCN(CC6CCCCC6)CC5)c(C(N)=O)cc34)cc2Cl)[nH]n1` [Compound 90], the IC50 in assay [3] turned out to be 175 nM; in assay [5], 2.78 nM; in assay [6], 101 nM; in assay [1] (setting [9]), 7.54 nM; in assay [7], 9.47 nM; in assay [2] (setting [10]), 256 nM.
For the compound `COc1cc2nccc(Oc3ccc(NC(=O)Nc4cc(C(C)(C)C)n[nH]4)cn3)c2cc1C(N)=O` [Compound 108, 4-{5-[3-(5-tert-butyl-2H-pyrazol-3-yl)-ureido]-pyridin-2-yloxy}-7-methoxy-quinolin-6-carboxamide], the IC50 was > 1000 nM in assay [3]; 146 nM in assay [8]; 666 nM in assay [4]; 31.3 nM in assay [5]; 3.81 nM in assay [1] (setting [9]); > 1000 nM in assay [7]. The IC50 in assay [2] (setting [10]) was > 1000 nM.
Regarding `COCCOc1cc2nccc(Oc3ccc(NC(=O)Nc4cc(C(C)(C)C)nn4C4CC4)cc3)c2cc1NC(C)=O` [Compound 118], the IC50 was 19.3 nM in assay [8], 0.38 nM in assay [5] and 0.11 nM in assay [1] (setting [9]).
For the compound `CC(=O)N1CCN(CCCOc2cc3nccc(Oc4ccc(NC(=O)Nc5cc(C(C)(C)C)n[nH]5)c(Cl)c4)c3cc2C(N)=O)CC1` [Compound 91, 7-[3-(4-acetyl-piperazin-1-yl)-propoxy]-4-{4-[3-(5-tert-butyl-2H-pyrazol-3-yl)-ureido]-3-chloro-phenoxy}-quinolin-6-carboxamide], the IC50 was 184 nM in assay [3]; 1.26 nM in assay [5]; 43.1 nM in assay [6]; 6.41 nM in assay [1] (setting [9]); 16.4 nM in assay [7]; 216 nM in assay [2] (setting [10]).
On to `COCCOc1cc2nccc(Oc3ccc(NC(=O)Nc4cc(C(C)(C)C)nn4CCN4CCOCC4)c(Cl)c3)c2cc1NC(C)=O` [Compound 123, N-[4-(4-{3-[5-tert-butyl-2-(2-morpholin-4-yl-ethyl)-2H-pyrazol-3-yl]-ureido}-3-chloro-phenoxy)-7-(2-methoxy-ethoxy)-quinolin-6-yl]-acetamide], for which the IC50 in assay [8] is 9.1 nM; in assay [5], < 0.05 nM; in assay [1] (setting [9]), 1.22 nM.
As for `CC(C)(C)c1cc(NC(=O)Nc2ccc(Oc3ccnc4cc(OCCCN5CCN(c6ccccc6)CC5)c(C(N)=O)cc34)cc2Cl)[nH]n1` [Compound 86, 4-{4-[3-(5-tert-butyl-2H-pyrazol-3-yl)-ureido]-3-chloro-phenoxy}-7-[3-(4-phenyl-piperazin-1-yl)-propoxy]-quinolin-6-carboxamide], the IC50 was 326 nM in assay [8]; 370 nM in assay [4]; 68.3 nM in assay [5]; 85.1 nM in assay [6]; 76.3 nM in assay [7]; 600 nM in assay [2] (setting [10]).
